Measurements reported in patent US20180289840A1, “Method for Evaluating Hematological Toxicity of Drug Under Evaluation, and Model for Evaluating Hematological Toxicity of Drug Under Evaluation” (Central Institute for Experimental Animals, priority 2015, published 2018).
Like-named read-outs stand apart in the source and are kept apart here.

How the values were obtained:
[1] = test system: human CD45+ cells (granulocytes-based progenitor cells); assay: Colony forming test on granulocytes-based myelopoiesis progenitor cells, human CD45+ bone marrow cells of humanized Tg-NOG mouse; assay type: cell-based; conditions: for influence on the granulocytes-based progenitor cells in the bone marrow, human vs mouse: colony forming test, comparison hCD45+ vs mCD45+; for IC50: concentration at which formation of 50% of granulocyte-derived colonies is inhibited, read-out: IC50 (nM) hCD45+; for IC50 / IC90: cultured 16 days; for IC90: concentration at which formation of 90% of granulocyte-derived colonies is inhibited, read-out: IC90 (nM) hCD45+
Source text: (§1) The mouse at week 14 after the transplantation of the hCD34^+ cells derived from the human cord blood was euthanized by removing the blood from the abdominal aorta under anesthesia of isoflurane. Then, the femur was collected. The femur was sterilely washed using the Iscove's Modified Dulbecco's Medium (IMDM, available from Life Technologies) to prepare a suspension of cells. The suspension of cells was passed through a nylon filter (pore size of 35 μm, Cell Strainer, available from BD Biosciences) to obtain a filtrate as a solution of the bone marrow cells. A portion of the solution of the bone marrow cells was subjected to FACS analysis to calculate a ratio between the human-derived leucocytes (hCD45^+) and the mouse-derived leucocytes (mCD45^+).
The human 45^+ cells were suspended in a methyl cellulose medium (MethoCult H4534, available from Stem cell technologies) so as to be 5×10^4 cells/1.1 mL/dish. Then, EHC was added at 0.14 nM, 0.4 nM, 1.2 nM, 3.7 nM, 11 nM, or 33 nM. Meanwhile, PTX was added at 0.12 nM, 0.4 nM, 1.1 nM, 3.3 nM, 10 nM, 30 nM, or 90 nM. The resultant was seeded in a dish and was cultured for 16 days at 37° C. under 5% CO2.
(§2) As the vehicle control, dimethyl sulfoxide (DMSO, final concentration of 0.002 v/v %) was used. For each concentration, two dishes were used.
(§3) After a period of the cultivation was completed, the number of the colonies derived from the granulocytes formed was counted and an average number of the colonies in each concentration was calculated. An average number of the colonies in the vehicle control was considered as 100%. The average number of the colonies in each concentration was considered as a relative value (IC50 and IC90). Here, the IC50 means a concentration at which formation of 50% of the colonies is inhibited and the IC90 means a concentration at which formation of 90% of the colonies is inhibited.
(§4) The collection, preparation, and cultivation of the bone marrow cells and the calculation of the percentage of inhibition of colony formation were performed in the same manner as in Example 3-1.
The human CD45^+ cells were exposed to nogitecan at an exposure concentration of 0.41 nM, 1.2 nM, 3.7 nM, 11.1 nM, 33.3 nM, or 100 nM. Meanwhile, the other human CD45^+ cells were exposed to oxaliplatin at an exposure concentration of 123 nM, 370 nM, 1,111 nM, 3,333 nM, 10,000 nM, or 30,000 nM.
(§5) A physiological saline solution was used for the vehicle control of nogitecan and a distilled water was used for the vehicle control of oxaliplatin.
(§6) An average number of the colonies in the vehicle control was considered as 100%. The average number of the colonies in each concentration was considered as a relative value (IC50 and IC90). Here, the IC50 means a concentration at which formation of 50% of the colonies is inhibited and the IC90 means a concentration at which formation of 90% of the colonies is inhibited.

[2] = test system: mouse CD45+ cells (granulocytes-based progenitor cells); assay: Colony forming test on granulocytes-based myelopoiesis progenitor cells, mouse CD45+ bone marrow cells of humanized Tg-NOG mouse; assay type: cell-based; conditions: cultured 8 days; for IC50: concentration at which formation of 50% of granulocyte-derived colonies is inhibited, read-out: IC50 (nM) mCD45+; for IC90: concentration at which formation of 90% of granulocyte-derived colonies is inhibited, read-out: IC90 (nM) mCD45+
Source text: as §1
The mouse CD45^+ cells were suspended in a methyl cellulose medium (available from MethoCult GF M3534, Stem cell technologies) so as to be 2×10^4 cells/1.1 mL/dish. Then, EHC (1.2 nM, 3.7 nM, 11 nM, 33 nM, 100 nM, or 300 nM) was added. Meanwhile, PTX (0.12 nM, 0.4 nM, 1.1 nM, 3.3 nM, 10 nM, 30 nM, or 90 nM) was added. The resultant was seeded in a dish and was cultured for 8 days at 37° C. under 5% CO2.
as §2, §3, §4
The mouse CD45^+ cells were exposed to nogitecan at an exposure concentration of 3.7 nM, 11.1 nM, 33.3 nM, 100 nM, 300 nM, or 900 nM. Meanwhile, the other mouse CD45^+ cells were exposed to oxaliplatin at an exposure concentration of 13.7 nM, 41.2 nM, 123 nM, 370 nM, or 1,111 nM.
as §5, §6

[3] = test system: Tg-NOG mouse; assay: Survival and general condition of humanized Tg-NOG mice after single intravenous administration; assay type: in vivo
Method: (§7) Six-week-old Tg-NOG mice (24 females) were irradiated with X-rays of 2.5 Gy. After a period of from 3 hours to 4 hours, the CD34^+ cells derived from the human cord blood were transplanted at 40,000 cells/body. At 5 week after the transplantation, the peripheral blood was collected from the orbital sinus under anesthesia of isoflurane. Engraftment thereof in the peripheral blood was confirmed.
(§8) Eleven mice suitable for the evaluation were selected and divided into the control group (5 mice) and the oxaliplatin administration group (6 mice). The mice in the control group received a 5 w/v % glucose solution from the tail vein through single intravenous administration. Meanwhile, two mice of the 6 mice in the oxaliplatin administration group received oxaliplatin at 20 mg/kg (2 mg/mL, 10 mL/kg), another two mice in the oxaliplatin administration group received oxaliplatin at 30 mg/kg (3 mg/mL, 10 mL/kg), and the other two mice in the oxaliplatin administration group received oxaliplatin at 40 mg/kg (4 mg/mL, 10 mL/kg) from the tail vein through single intravenous administration. Regarding assignment of the animals, the animals were grouped so that an average value of the number of the human leucocytes and that of the number of the human granulocytes were almost the same.
(§9) The peripheral blood was collected from the orbital sinus under anesthesia of isoflurane at day 4, day 7, day 14, day 17, day 21, and day 28 after the administration. Then, the number of the leucocytes in the peripheral blood was measured with FACS. The animals administered at 30 mg/kg and the animals administered at 40 mg/kg died by day 7 after the administration.

[4] = test system: human-derived leucocytes (hCD45+) and human-derived granulocytes (hCD66b+); assay type: in vivo; conditions: oxaliplatin 20 mg/kg single intravenous
Method: as §7, §8, §9

[5] = test system: mouse-derived leucocytes (mCD45+) and mouse-derived granulocytes (mGr-1+); assay type: in vivo; conditions: oxaliplatin 20 mg/kg single intravenous
Method: as §7, §8, §9

[6] = Homo sapiens, Bone marrow cell, 384 h
[7] = Mus musculus, Bone marrow cell, 192 h

Structure (SMILES) | influence on the granulocytes-based progenitor cells in the bone marrow, human vs mouse [1] | IC50 [1] [nM] | IC90 [1] [nM] | IC50 [2] [nM] | IC90 [2] [nM] | IC50 [1, 6] [nM] | IC90 [1, 6] [nM] | IC50 [2, 7] [nM] | IC90 [2, 7] [nM] | general condition of animals ([3]; oxaliplatin 20 mg/kg single intravenous, day 17 after the administration) | death of animals, day after the administration ([3]; oxaliplatin 30 mg/kg single intravenous) [days] | death of animals, day after the administration ([3]; oxaliplatin 40 mg/kg single intravenous) [days] | change of human leucocytes in peripheral blood [4] | day from which tendency of recovering of human-derived granulocytes was presented [4] [days] | change of human-derived granulocytes ([4]; day 4 after the administration) | difference between species: influence on the reduction in the leucocytes ([4]; human vs mouse leucocytes) | change of mouse-derived leucocytes (mCD45+) and mouse-derived granulocytes (mGr-1+) [5]
CCc1c2c(nc3ccc(O)cc13)-c1cc3c(c(=O)n1C2)COC(=O)[C@]3(O)CC [EHC, 7-Ethyl-10-hydroxycamptothecin] | higher in the human than in the mouse | 11.3 | 12.9 | 106 | 122 | – | – | – | – | – | – | – | – | – | – | – | –
CC[C@@]1(O)C(=O)OCc2c1cc1n(c2=O)Cc2cc3c(CN(C)C)c(O)ccc3nc2-1 [Nogitecan, nogitecan] | higher in the human than in the mouse | – | – | – | – | 8.7 | 24.3 | 142 | 305 | – | – | – | – | – | – | – | –
O=C1[O][Pt]2([NH][C@@H]3CCCC[C@H]3[NH]2)[O]C1=O [Oxaliplatin, oxaliplatin] | higher in the mouse than in the human | 2770 | 4660 | 434 | 846 | – | – | – | – | moribund condition | ≤ 7 | ≤ 7 | no considerable reduction | ≥ 7 | slightly decreased | more strongly developed in the human than in the mouse | considerably decreased
CC(=O)O[C@H]1C(=O)[C@@]2(C)[C@H]([C@H](OC(=O)c3ccccc3)[C@]3(O)C[C@H](OC(=O)[C@H](O)[C@@H](NC(=O)c4ccccc4)c4ccccc4)C(C)=C1C3(C)C)[C@]1(OC(C)=O)CO[C@@H]1C[C@@H]2O [PTX, paclitaxel] | almost the same between the human and the mouse | – | – | – | – | 83.9 | 84.5 | 71.2 | 87.5 | – | – | – | – | – | – | – | –
